Assays:
Assay type in all cases: cell-based
fibroblasts [1] = assay: DNA damage products 8-OHdG (kit) and γ-H2AX (immunofluorescence) in UV-A irradiated fibroblasts; settings: Fibroblast, light or radiation study, 10-HDA 0.25 mg/mL, UV-A 30 J/cm^2, 24 hours after irradiation, relative to irradiated control without 10-HDA
Procedure: Fibroblasts were seeded into a 6-well plate at a seeding density of 2.2×10^5 cells/well and incubated overnight in an incubator (37° C., 5% CO2). When the confluence reached 40%-60%, 2 mL of culture medium containing a corresponding concentration of a test substance was added to each well according to different groups. The BC group was a blank control group without any drug intervention and was cultured only in 2 mL normal medium. The NC group was a negative control group without any drug intervention and was cultured only in 2 mL normal medium. The PC group was a positive control group containing VE at a final concentration of 7 μg/mL. The sample group contained 10-HDA at a final concentration of 0.25 mg/mL. After drug incubation for 24 hours, according to test groups, the NC group, PC group, and sample group were subjected to UV-A irradiation at a dose of 30 J/cm^2. After irradiation, the cells were further cultured for 24 hours in an incubator (37° C., 5% CO2). After incubation, cell culture supernatants were collected and tested according to the operation instructions of an 8-OHdG kit. […] Images were acquired under a fluorescence microscope and analyzed using Image-Pro® Plus image processing software.

fibroblasts [2] = assay: Mitochondrial function in UV-A irradiated fibroblasts (mitochondrial ROS, ATP, NADP+/NADPH and JC-1 kits); settings: 10-HDA 0.25 mg/mL, UV-A 30 J/cm^2, 24 hours after irradiation, relative to irradiated control; for inhibition at 250 µg/mL: Fibroblast, light or radiation study
Procedure: Fibroblasts were seeded into a 6-well plate at a seeding density of 2.2×10^5 cells/well and incubated overnight in an incubator (37° C., 5% CO2). When the confluence reached 40%-60%, 2 mL of culture medium containing a corresponding concentration of a test substance was added to each well according to different groups. The BC group was a blank control group without any drug intervention and was cultured only in 2 mL normal medium. The NC group was a negative control group without any drug intervention and was cultured only in 2 mL normal medium. The PC group was a positive control group containing VE at a final concentration of 7 μg/mL. The sample group contained 10-HDA at a final concentration of 0.25 mg/mL. After drug incubation for 24 hours, according to test grouping, the NC group, PC group, and sample group were subjected to UV-A irradiation at a dose of 30 J/cm^2. After irradiation, the cells were further cultured for 24 hours in an incubator (37° C., 5% CO2). After incubation, mitochondrial functions were assessed according to instructions of a mitochondrial ROS detection kit, a mitochondrial ATP detection kit (Beyotime), a mitochondrial NADP^+/NADPH detection kit (WST-8 method), and a JC-1 mitochondrial membrane potential detection kit.

3D epidermal model = assay: Regulation of ceramides and fatty acids in a 3D epidermal model (stratum corneum lipid extraction, LC-MS); settings: 10-HDA 0.0625 mg/mL; relative to untreated control system
Procedure: The model was transferred to a 6-well plate pre-filled with 3.7 mL/well model culture medium and incubated for 24 hours in a CO2 incubator (37° C., 5% CO2). The positive control (PC) group contained WY-14643 (pirinixic acid) at a final concentration of 50 μM. In the sample group, 10-HDA was at a final concentration of 0.0625 mg/mL. After incubation, each model was cut into two halves. One half was used for protein measurement, and the other half was used for lipid extraction and placed in a 6-well plate (the model was stored at −80° C.). For lipid extraction, 1 mL trypsin was added to each well of the 6-well plate and incubated for 30 minutes in an incubator. Water was added on the lid of the 6-well plate. The model and the nylon membrane were separated with tweezers, and viscous material on the stratum corneum was peeled off with tweezers. Water on the stratum corneum was blotted dry with paper, and the stratum corneum was placed into a glass tube. 1 mL chloroform:methanol mixture (chloroform:methanol=1:1) was added to each glass tube. The tube was ultrasonicated in an ice bath for 30 minutes. The supernatant was transferred to a vial and evaporated to dryness. To the dried vial, 160 μL acetonitrile: isopropanol mixture (acetonitrile:isopropanol=1:1) was added, and 20 μL ceramide C12 internal standard solution was added (the ceramide internal standard solution having a concentration of 100 μg/mL, with the internal standard solvent being a 1:1 mixture of acetonitrile and isopropanol). The mixture was ultrasonicated for 10 minutes and shaken for dissolution for 30 minutes, transferred to a sample centrifuge tube, centrifuged at 12,000 rpm for 10 minutes, and 100 μL of the upper layer was transferred into a 250 μL insert. LC-MS detection was performed using a Thermo Fisher Orbitrap Q Exactive™ quadrupole-Orbitrap high-resolution mass spectrometer.
Mass spectrometry conditions were as follows: mass spectrometry analysis was performed using a quadrupole-Orbitrap mass spectrometer equipped with a heated electrospray ionization source. Ion source voltages for positive and negative modes were 3.7 kV and 3.5 kV, respectively. Capillary heating temperature was 320° C. Sheath gas pressure was 30 psi, and auxiliary gas pressure was 10 psi. Heated vaporizer temperature was 300° C. Both sheath gas and auxiliary gas were nitrogen. Collision gas was nitrogen at a pressure of 1.5 mTorr. Full MS scan parameters were: resolution 70,000; automatic gain control target 1×10^6; […] 50 ms; and m/z scan range 50-1500. The LC-MS system was controlled by Xcalibur 2.2 SP1.48 software, and data acquisition was also controlled by the software.

fibroblasts [3] = assay: Telomere length by qPCR (T/S ratio) in H2O2-stimulated fibroblasts; settings: positive control 1 mg/mL; cells from adult; H2O2 stimulation three days, 2 hours each; five passages
Procedure: Fibroblasts were seeded into a 6-well plate at a seeding density of 2.2×10^5 cells/well and incubated overnight in an incubator (37° C., 5% CO2). When the confluence reached 40%-60%, 2 mL of culture medium containing a corresponding concentration of a test substance was added to each well according to different groups. The BC group was a blank control group, wherein the cells were derived from back skin of children aged 7-8 years, and no drug intervention was performed during cultivation. The NC group was a negative control group, wherein the cells were derived from back skin of an adult. When the confluence reached 40%-60%, H2O2 stimulation was applied for three consecutive days, with each stimulation lasting 2 hours, and samples were collected for detection after continuous passaging for five passages. The PC group was a positive control group, wherein the cells were derived from back skin of an adult. When the confluence reached 40%-60%, H2O2 stimulation was applied for three consecutive days, with each stimulation lasting 2 hours. During the stimulation period, the cells were cultured in a medium containing cycloastragenol at a final concentration of 1 mg/mL. Samples were collected for detection after continuous passaging for five passages. […] Genomic DNA (gDNA) was obtained using a genomic DNA extraction kit, and telomere length was determined by qPCR using gDNA as a template.

Row | Compound | inhibition at 250 µg/mL (fibroblasts [1]; immunofluorescence, read-out: γ-H2AX inhibition rate) [%] | inhibition at 250 µg/mL (fibroblasts [1]; read-out: 8-OHdG inhibition rate) [%] | NADPH content increase (fibroblasts [2]) [%] | mitochondrial ATP content increase (fibroblasts [2]) [%] | inhibition at 250 µg/mL (fibroblasts [2]; read-out: early apoptosis rate inhibition rate) [%] | inhibition at 250 µg/mL (fibroblasts [2]; read-out: mitochondrial ROS inhibition rate) [%] | ceramide/protein (total ceramide normalized by sample protein amount) increase (3D epidermal model) [%] | fatty acid/protein (total fatty acid normalized by sample protein amount) increase (3D epidermal model) [%] | total ceramide increase (3D epidermal model) [%] | total fatty acid increase (3D epidermal model) [%] | telomere length increase relative to the NC group (fibroblasts [3]) [%]
1 | O=C(O)C=CCCCCCCCO [10-HDA, 10-hydroxy-2-decenoic acid] | 47.2 | 45.1 | 15.13 | 56.23 | 12.7 | 70.7 | 47.64 | 39.0 | 35.37 | 27.51 | –
2 | CC(C)(O)[C@@H]1CC[C@](C)([C@H]2[C@@H](O)C[C@@]3(C)[C@@H]4C[C@H](O)[C@H]5C(C)(C)[C@@H](O)CC[C@@]56C[C@@]46CC[C@]23C)O1 [cycloastragenol, reference compound] | – | – | – | – | – | – | – | – | – | – | 43.1

Source: US20260160767A1, “Biosynthetic Method for Preparing 10-Hydroxy-2-Decenoic Acid and Use Thereof in Skin Care” (SHANDONG FREDA BIOTECH CO., LTD., priority 2023, published 2026)
